What all share (assay): NCI tumour cell line growth inhibition, 48 h
In experiment [1] the test system is HCT-116 colon.
The subject of experiment [2] is K-562 leukemia.
For experiment [3], the system named is KM12 colon.
For experiment [4], the system named is MOLT-4 leukemia.
The subject of experiment [5] is OVCAR-4 ovarian.
In experiment [6] the test system is SF-295 CNS.
The subject of experiment [7] is HS 578T breast.
Experiment [8] concerns LOX IMVI melanoma.
The test system of experiment [9] is NCI-H522 lung.
Experiment [10] relates to BT-549 breast.

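Cultured in 96-well plates, cells were exposed to test compound for 48 hours across five concentrations. Abbreviation: GI50, concentration required for 50% inhibition of growth. TGI: concentration producing complete growth inhibition.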

For the molecule `CC1=NN(c2ccccc2)C(=O)C1N=Nc1ccc(Br)cc1C` (stereo not given), the TGI in experiment [1], in experiment [2], in experiment [3], in experiment [4], in [5] and in [6] was more than 100 µM throughout.
On to `CN(N=O)N1C(=O)SCC(c2ccccc2)(c2ccccc2)C1=O`, for which the TGI in experiment [1], in experiment [7], in experiment [2], in [3], in [8] and in experiment [4] was more than 100 µM each time. Besides, the TGI was 91.1 µM in experiment [9] and more than 100 µM in [6].
Consider `Cc1c2cc[n+](C)cc2c(C)c2c1[nH]c1ccc(OC(C)(C)C)cc12`, for which the TGI in [1], in [2], in [3], in experiment [8], in experiment [4] and in experiment [9] was more than 100 µM throughout. For the same molecule, the TGI in experiment [5] and in [6] was more than 100 µM in each case.
Turning to `O=Cc1cc2sc(C=O)cc2s1`, the TGI in experiment [1], in experiment [2], in [3], in experiment [8], in experiment [4] and in experiment [9] was more than 100 µM each time. Also, the TGI in experiment [5] and in experiment [6] was more than 100 µM in each case.
`O=S(=O)(O)c1ccc([Se][Se]c2ccc(S(=O)(=O)O)cc2)cc1`: the TGI in experiment [1], in experiment [2], in [3], in experiment [8], in [4] and in experiment [9] was more than 100 µM each time. The TGI in [5] and in experiment [6] was more than 100 µM each time.
With `O=C1/C(=C/c2ccc(C(=O)O)cc2)CNC/C1=C\c1ccc(C(=O)O)cc1`, the TGI in experiment [1], in [2], in [3], in [4], in [5] and in experiment [6] was more than 100 µM in each case.
For `COc1ccc(C2[C@@H](Cl)C(=O)N2c2ccc(OC)cc2)cc1` (stereo not given in full), the TGI in [1], in [2], in [3], in [4], in [9] and in experiment [6] was more than 100 µM throughout.
For `C/C(COc1ccccc1)=N\NC(N)=S`, the TGI in experiment [1], in experiment [2], in [3], in experiment [8], in [4] and in experiment [5] was more than 100 µM each time. This molecule gave a TGI in [6] of more than 100 µM.
Turning to `CCCCCCCC(=O)[O-].N.N.N.N.N.[Co+3].[O-][Cl+3]([O-])([O-])[O-]`, the GI50 is more than 100 µM in experiment [1]; more than 100 µM in experiment [2]; more than 100 µM in experiment [3]; more than 100 µM in [8]; 53.5 µM in experiment [4]; more than 100 µM in [9]. Also, the GI50 in [5] and in [6] was more than 100 µM throughout. Besides, the TGI in experiment [1], in experiment [2], in [3], in [8], in [4] and in [9] was more than 100 µM throughout. Further, the TGI in [5] and in [6] was more than 100 µM in each case.
`NC1=NN(c2ccccc2)C(=O)C1/C(=N\NC(=O)c1cc2ccccc2cc1O)C(=O)Nc1ccc(Cl)c(Cl)c1` (stereo not given): the TGI in [1] was more than 100 µM; in experiment [2], more than 100 µM; in experiment [3], more than 100 µM; in [8], more than 100 µM; in experiment [4], 75.6 µM; in [9] it was 37.2 µM. The TGI in experiment [5] and in experiment [6] was more than 100 µM throughout.
Take `O=C(Nc1c(Cl)cccc1Cl)Oc1cccc2cccnc12`: the GI50 was 8.85 µM in [10]; 3.69 µM in [1]; 10.9 µM in experiment [7]; 4.52 µM in experiment [2]; 4.69 µM in experiment [3]; 3.96 µM in experiment [4]. Also, the GI50 in experiment [9] is 3.71 µM; in experiment [5], 2.9 µM; in experiment [6], 6.68 µM. The TGI in experiment [10] was 90 µM; in [1], more than 100 µM; in experiment [7], 66.1 µM; in experiment [2] it was more than 100 µM; in experiment [3], 70.4 µM; in experiment [4] it was 28.4 µM. The results for the TGI in experiment [9], in experiment [5] and in experiment [6] were 20.3 µM, 14 µM and 69 µM, respectively.
For `CC1O[C@@H]2CCCCC(=O)[C@]2(C)[C@H]1C` (stereo not given in full), the TGI in experiment [1], in experiment [2], in experiment [3], in [8], in experiment [4] and in [5] was more than 100 µM each time. Also, in experiment [6], the TGI is more than 100 µM.
On to `CN1C(=O)CC(CC(=O)C2CCCCC2=O)CC1=O` (stereo not given), for which the TGI in experiment [1], in experiment [2], in experiment [3], in experiment [8], in experiment [4] and in experiment [9] was more than 100 µM throughout. The TGI in experiment [5] and in [6] was more than 100 µM in each case.
With `OCC1OC(NO)C(O)C(O)C1O` (stereo not given), the TGI in experiment [1], in [2], in [3], in [8], in experiment [4] and in [9] was more than 100 µM in each case. The TGI in experiment [5] and in experiment [6] was more than 100 µM each time.
On to `CCCCCCCN(CCCCCCC)C(=N)c1ccc(OC)c2ccccc12`, for which the GI50 in experiment [7] is 1.56 µM; in experiment [9], 1.25 µM; in experiment [5] it was 1.36 µM; in experiment [6], 1.24 µM. For the same molecule, the TGI was 3.53 µM in experiment [7], 2.73 µM in experiment [9], 3.02 µM in [5] and 2.72 µM in experiment [6].

(Values after PubChem BioAssay (NCI).)
